Conditions: for mass density / kinematic viscosity / speed of sound / vapor or sublimation pressure: Liquid; for mass density: Vibrating tube method; for kinematic viscosity / speed of sound: 101.33 kPa; for kinematic viscosity: Capillary tube (Ostwald / Ubbelohde) method; for speed of sound: Sing-around technique in a fixed-path interferometer; for vapor or sublimation pressure: Ebulliometric method (Recirculating still); for surface tension liquid-gas: Drop volume

Cc1ccc(C)o1 [2,5-dimethylfuran]
Conditions | mass density [kg/m3]
313.15 K, 100 kPa | 879.93
313.15 K, 2500 kPa | 882.45
313.15 K, 5000 kPa | 885.02
313.15 K, 7500 kPa | 887.51
313.15 K, 10000 kPa | 889.95
313.15 K, 20000 kPa | 899.05
313.15 K, 30000 kPa | 907.41
313.15 K, 40000 kPa | 915.12
313.15 K, 50000 kPa | 922.3
313.15 K, 60000 kPa | 928.9
315.65 K, 99 kPa | 877.195
318.15 K, 99 kPa | 874.437
318.15 K, 100 kPa | 874.44
318.15 K, 2500 kPa | 877.03
318.15 K, 5000 kPa | 879.68
318.15 K, 7500 kPa | 882.27
318.15 K, 10000 kPa | 884.79
318.15 K, 20000 kPa | 894.18
318.15 K, 30000 kPa | 902.74
318.15 K, 40000 kPa | 910.6
318.15 K, 50000 kPa | 917.91
318.15 K, 60000 kPa | 924.74
320.65 K, 99 kPa | 871.651
323.15 K, 99 kPa | 868.85
323.15 K, 100 kPa | 868.85
323.15 K, 2500 kPa | 871.55
323.15 K, 5000 kPa | 874.3
323.15 K, 7500 kPa | 876.94
323.15 K, 10000 kPa | 879.54
323.15 K, 20000 kPa | 889.25
323.15 K, 30000 kPa | 898.07
323.15 K, 40000 kPa | 906.13
323.15 K, 50000 kPa | 913.67
323.15 K, 60000 kPa | 920.58
325.65 K, 99 kPa | 866.06
328.15 K, 99 kPa | 863.248
328.15 K, 100 kPa | 863.25
328.15 K, 2500 kPa | 866.05
328.15 K, 5000 kPa | 868.91
328.15 K, 7500 kPa | 871.68
328.15 K, 10000 kPa | 874.38
328.15 K, 20000 kPa | 884.36
328.15 K, 30000 kPa | 893.38
328.15 K, 40000 kPa | 901.61
328.15 K, 50000 kPa | 909.29
328.15 K, 60000 kPa | 916.43
330.65 K, 99 kPa | 860.418
333.15 K, 99 kPa | 857.577
333.15 K, 100 kPa | 857.58
333.15 K, 2500 kPa | 860.47
333.15 K, 5000 kPa | 863.42
333.15 K, 7500 kPa | 866.28
333.15 K, 10000 kPa | 869.07
333.15 K, 20000 kPa | 879.4
333.15 K, 30000 kPa | 888.7
333.15 K, 40000 kPa | 897.22
333.15 K, 50000 kPa | 905.17
333.15 K, 60000 kPa | 912.4
335.65 K, 99 kPa | 854.721
338.15 K, 99 kPa | 851.85
338.15 K, 100 kPa | 851.85
338.15 K, 2500 kPa | 854.88
338.15 K, 5000 kPa | 857.96
338.15 K, 7500 kPa | 860.93
338.15 K, 10000 kPa | 863.81
338.15 K, 20000 kPa | 874.45
338.15 K, 30000 kPa | 884.02
338.15 K, 40000 kPa | 892.61
338.15 K, 50000 kPa | 900.74
338.15 K, 60000 kPa | 908.17

Conditions | kinematic viscosity [m2/s] | speed of sound [m/s] | surface tension liquid-gas [mN/m] | vapor or sublimation pressure [kPa]
313.15 K | 4.57e-07 | 1130.7 | – | –
314.61 K | – | – | – | 14.8
315.65 K | 4.5e-07 | 1121.2 | 22.7 | –
318.15 K | 4.4e-07 | 1109.5 | 22.29 | –
319.27 K | – | – | – | 18.09
320.65 K | 4.3e-07 | 1100 | 21.97 | –
323.15 K | 4.23e-07 | 1088.5 | 21.69 | –
324.99 K | – | – | – | 22.86
325.65 K | 4.12e-07 | 1078.7 | 21.29 | –
328.09 K | – | – | – | 26.07
328.15 K | 4.03e-07 | 1067.6 | 20.95 | –
330.65 K | 3.95e-07 | 1057.5 | 20.58 | –
332.43 K | – | – | – | 30.95
333.15 K | 3.89e-07 | 1046.9 | 20.34 | –
335.48 K | – | – | – | 34.85
335.65 K | 3.8e-07 | 1036.2 | 20.01 | –
338.15 K | 3.72e-07 | 1029.2 | 19.65 | –
338.4 K | – | – | – | 38.81
340.95 K | – | – | – | 42.52
343.11 K | – | – | – | 46.09
345.85 K | – | – | – | 50.77
348.13 K | – | – | – | 55.05
350.87 K | – | – | – | 60.51
352.82 K | – | – | – | 64.61
354.3 K | – | – | – | 68.12
356.1 K | – | – | – | 72.15
357.87 K | – | – | – | 76.61
359.42 K | – | – | – | 80.63
361.09 K | – | – | – | 85.02
362.46 K | – | – | – | 88.86
363.39 K | – | – | – | 91.39
364.36 K | – | – | – | 94.28
365.26 K | – | – | – | 97.05
366.7 K | – | – | – | 101.33
